Laboratory results from patent publication US10266577B2, “GLP-1 derivatives, and uses thereof” (Novo Nordisk A/S, priority 2013, dated 2019).
Numbered stars: 1 amine (or outer) side, 2 acyl side, 3 side chain; on linkers, the order of the positions; unused ones are H or OH. Square brackets hold non-standard residues; d marks the D form. Side chains are listed from the residue outwards. Peptide text beside a SMILES is read from it. * marks the point of attachment. Hexadecanoyl(16-SO3H) = O=C(CCCCCCCCCCCCCCCS(=O)(=O)O)*; C18 diacid = O=C(O)CCCCCCCCCCCCCCCCC(=O)*; γGlu = O=C(O)[C@H](CCC(=O)[*:2])N[*:1]; εLys = N[C@@H](CCCCN[*:1])C(=O)[*:2]; Cya = N[C@@H](CS(=O)(=O)O)C(=O)O; Trx = NC[C@H]1CC[C@H](C(=O)O)CC1; AEEA = NCCOCCOCC(=O)O; Aib = CC(C)(N)C(=O)O

system: not listed separately; assay: in vivo; conditions: male, Göttingen, minipig, iv
Procedure: The purpose of this study is to determine the protraction in vivo of the GLP-1 derivatives after i.v. administration to minipigs, i.e. the prolongation of their time in the body and thereby their time of action. This is done in a pharmacokinetic (PK) study, where the terminal half-life of the derivative in question is determined. By terminal half-life is meant the time it takes to halve a certain plasma concentration in the terminal elimination phase.
Male Göttingen minipigs were obtained from Ellegaard Göttingen Minipigs (Dalmose, Denmark) approximately 7-14 months of age and weighing approximately 16-35 kg were used in the studies. The minipigs were housed either individually (pigs with permanent catheters) or in a group and fed restrictedly once or twice daily with SDS minipig diet (Special Diets Services, Essex, UK).
After at least 2 weeks of acclimatisation two permanent central venous catheters were implanted in vena cava caudalis or cranialis in each animal. The animals were allowed 1 week recovery after the surgery, and were then used for repeated pharmacokinetic studies with a suitable wash-out period between successive GLP-1 derivative dosings.
Blood samples (for example 0.8 ml) were collected in EDTA buffer (8 mM) and then centrifuged at 4° C. and 1942G for 10 minutes.
Plasma was pipetted into Micronic tubes on dry ice, and kept at −20° C. until analysed for plasma concentration of the respective GLP-1 compound using LOCI. Individual plasma concentration-time profiles were analyzed by a non-compartmental pharmacokinetic method in Phoenix v. 6.2 (Pharsight Inc., Mountain View, Calif., USA), or other relevant software for PK analysis, and the resulting terminal half-lives (harmonic mean) determined.

Row | half-life [h] | SMILES
1 | 120 | CC[C@H](C)[C@H](NC(=O)[C@H](Cc1ccccc1)NC(=O)[C@H](CCC(=O)O)NC(=O)[C@H](CCCNC(=N)N)NC(=O)[C@H](C)NC(=O)[C@H](C)NC(=O)[C@H](CCC(N)=O)NC(=O)[C@H](CCCCNC(=O)COCCOCCNC(=O)COCCOCCNC(=O)[C@H](CS(=O)(=O)O)NC(=O)[C@H]1CC[C@H](CNC(=O)CCCCCCCCCCCCCCCS(=O)(=O)O)CC1)NC(=O)[C@H](CCC(=O)O)NC(=O)[C@H](CC(C)C)NC(=O)[C@H](Cc1ccc(O)cc1)NC(=O)[C@H](CCCCNC(=O)COCCOCCNC(=O)COCCOCCNC(=O)[C@H](CS(=O)(=O)O)NC(=O)[C@H]1CC[C@H](CNC(=O)CCCCCCCCCCCCCCCS(=O)(=O)O)CC1)NC(=O)[C@H](CO)NC(=O)[C@@H](NC(=O)[C@H](CC(=O)O)NC(=O)[C@H](CO)NC(=O)[C@@H](NC(=O)[C@H](Cc1ccccc1)NC(=O)[C@@H](NC(=O)CNC(=O)[C@H](CCC(=O)O)NC(=O)C(C)(C)NC(=O)[C@@H](N)Cc1c[nH]cn1)[C@@H](C)O)[C@@H](C)O)C(C)C)C(=O)N[C@@H](CCCCNC(=O)COCCOCCNC(=O)COCCOCCNC(=O)[C@H](CS(=O)(=O)O)NC(=O)[C@H]1CC[C@H](CNC(=O)CCCCCCCCCCCCCCCS(=O)(=O)O)CC1)C(=O)N[C@@H](Cc1c[nH]c2ccccc12)C(=O)N[C@@H](CC(C)C)C(=O)N[C@H](C(=O)N[C@@H](CCCNC(=N)N)C(=O)NCC(=O)N[C@@H](CCCNC(=N)N)C(=O)NCC(=O)O)C(C)C [Example 4] (H-H[Aib]EGTFTSDVSK([AEEA-AEEA-Cya-Trx-Hexadecanoyl(16-SO3H)])YLEK([AEEA-AEEA-Cya-Trx-Hexadecanoyl(16-SO3H)])QAAREFIK([AEEA-AEEA-Cya-Trx-Hexadecanoyl(16-SO3H)])WLVRGRG-OH; N-terminus and C-terminus assumed)
2 | 138 | CC[C@H](C)[C@H](NC(=O)[C@H](Cc1ccccc1)NC(=O)[C@H](CCC(=O)O)NC(=O)[C@H](CCCCNC(=O)[C@H](CO)NC(=O)[C@H](CO)NC(=O)[C@H](CO)NC(=O)[C@H](CO)NC(=O)[C@H](CO)NC(=O)[C@H](CO)NC(=O)CC[C@H](NC(=O)CCCCCCCCCCCCCCCCC(=O)O)C(=O)O)NC(=O)[C@H](C)NC(=O)[C@H](C)NC(=O)[C@H](CCC(N)=O)NC(=O)CNC(=O)[C@H](CCC(=O)O)NC(=O)[C@H](CC(C)C)NC(=O)[C@H](Cc1ccc(O)cc1)NC(=O)[C@H](CCCCNC(=O)[C@H](CO)NC(=O)[C@H](CO)NC(=O)[C@H](CO)NC(=O)[C@H](CO)NC(=O)[C@H](CO)NC(=O)[C@H](CO)NC(=O)CC[C@H](NC(=O)CCCCCCCCCCCCCCCCC(=O)O)C(=O)O)NC(=O)[C@H](CO)NC(=O)[C@@H](NC(=O)[C@H](CC(=O)O)NC(=O)[C@H](CO)NC(=O)[C@@H](NC(=O)[C@H](Cc1ccccc1)NC(=O)[C@@H](NC(=O)CNC(=O)[C@H](CCC(=O)O)NC(=O)C(C)(C)NC(=O)[C@@H](N)Cc1c[nH]cn1)[C@@H](C)O)[C@@H](C)O)C(C)C)C(=O)N[C@@H](C)C(=O)N[C@@H](Cc1c[nH]c2ccccc12)C(=O)N[C@@H](CC(C)C)C(=O)N[C@H](C(=O)N[C@@H](CCCNC(=N)N)C(=O)NCC(=O)N[C@@H](CCCNC(=N)N)C(=O)N[C@@H](CCCCNC(=O)[C@H](CO)NC(=O)[C@H](CO)NC(=O)[C@H](CO)NC(=O)[C@H](CO)NC(=O)[C@H](CO)NC(=O)[C@H](CO)NC(=O)CC[C@H](NC(=O)CCCCCCCCCCCCCCCCC(=O)O)C(=O)O)C(=O)O)C(C)C [Example 8]
3 | 111 | CC[C@H](C)[C@H](NC(=O)[C@H](Cc1ccccc1)NC(=O)[C@H](CCC(=O)O)NC(=O)[C@H](CCCCNC(=O)[C@@H](N)CCCCNC(=O)COCCOCCNC(=O)COCCOCCNC(=O)[C@H](CS(=O)(=O)O)NC(=O)CCCCCCCCCCCCCCCS(=O)(=O)O)NC(=O)[C@H](C)NC(=O)[C@H](C)NC(=O)[C@H](CCC(N)=O)NC(=O)[C@H](CCC(=O)O)NC(=O)[C@H](CCC(=O)O)NC(=O)[C@H](CC(C)C)NC(=O)[C@H](Cc1ccc(O)cc1)NC(=O)[C@H](CO)NC(=O)[C@H](CO)NC(=O)[C@@H](NC(=O)[C@H](CC(=O)O)NC(=O)[C@H](CO)NC(=O)[C@@H](NC(=O)[C@H](Cc1ccccc1)NC(=O)[C@@H](NC(=O)CNC(=O)[C@H](CCC(=O)O)NC(=O)C(C)(C)NC(=O)[C@@H](N)Cc1c[nH]cn1)[C@@H](C)O)[C@@H](C)O)C(C)C)C(=O)N[C@@H](CCCCNC(=O)[C@@H](N)CCCCNC(=O)COCCOCCNC(=O)COCCOCCNC(=O)[C@H](CS(=O)(=O)O)NC(=O)CCCCCCCCCCCCCCCS(=O)(=O)O)C(=O)N[C@@H](Cc1c[nH]c2ccccc12)C(=O)N[C@@H](CC(C)C)C(=O)N[C@H](C(=O)N[C@@H](CCCNC(=N)N)C(=O)NCC(=O)N[C@@H](CCCNC(=N)N)C(=O)N[C@@H](CCCCNC(=O)[C@@H](N)CCCCNC(=O)COCCOCCNC(=O)COCCOCCNC(=O)[C@H](CS(=O)(=O)O)NC(=O)CCCCCCCCCCCCCCCS(=O)(=O)O)C(=O)O)C(C)C [Example 12]

biological target: T1, human GLP-1 receptor (Homo sapiens, UniProt P43220); assay: GLP-1 receptor binding: competitive binding assay (125I-GLP-1, SPA) on isolated membranes at low and high HSA; conditions: high serum albumin (2.0% HSA final assay concentration); displacement of 125I-GLP-1
T1 construct: expressed in transfected cells; host or cells: BHK cells (parent line BHKTS13), clone FCW467-12A; membrane preparation
T1 sequence (P43220 24-463): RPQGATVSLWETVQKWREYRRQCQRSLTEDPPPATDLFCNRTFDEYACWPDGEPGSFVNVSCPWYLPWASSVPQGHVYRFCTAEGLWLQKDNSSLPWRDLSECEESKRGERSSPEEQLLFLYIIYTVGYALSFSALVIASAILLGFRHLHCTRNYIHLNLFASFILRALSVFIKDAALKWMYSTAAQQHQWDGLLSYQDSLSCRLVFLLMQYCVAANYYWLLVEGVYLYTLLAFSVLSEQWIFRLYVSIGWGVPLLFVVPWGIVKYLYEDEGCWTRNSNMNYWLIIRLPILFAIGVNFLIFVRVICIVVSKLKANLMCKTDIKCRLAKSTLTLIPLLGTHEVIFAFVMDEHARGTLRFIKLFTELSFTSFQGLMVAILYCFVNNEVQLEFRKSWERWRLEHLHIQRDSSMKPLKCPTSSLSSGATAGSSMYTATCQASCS
Procedure: The purpose of this example is to test the receptor binding of the GLP-1 derivatives in vitro. The receptor binding is a measure of affinity of a derivative for the human GLP-1 receptor.
In this type of assay a labelled ligand (in this case ^125I-GLP-1) is bound to the receptor. Each derivative is added in a series of concentrations to isolated membranes containing the human GLP-1 receptor and displacement of the labelled ligand is monitored. The receptor binding is reported as the concentration at which half of the labelled ligand is displaced from the receptor, the IC50 value.
The following chemicals were used in the assay: Human serum albumin (HSA) (Sigma A1653), DMEM w/o phenol red (Gibco 11880-028), Pen/strep (Invitrogen 15140-122), G418 (Invitrogen 10131-027), 1 M Hepes (Gibco 15630), EDTA (Invitrogen 15575-038), PBS (Invitrogen 14190-094), fetal calf serum (Invitrogen 16140-071), EGTA, MgCl2 (Merck 1.05832.1000), Tween 20 (Amresco 0850C335), SPA particles (wheat germ agglutinin (WGA) SPA beads, Perkin Elmer RPNQ0001), [^125I]-GLP-1]-(7-36)NH2 (produced in-house), OptiPlate™-96 (Packard 6005290).
Buffer 1 consisted of 20 mM Na-HEPES plus 10 mM EDTA and pH was adjusted to 7.4. Buffer 2 consisted of 20 mM Na-HEPES plus 0.1 mM EDTA and pH was adjusted to 7.4. Assay buffer consisted of 50 mM HEPES supplemented with 5 mM EGTA, 5 mM MgCl2, 0.005% Tween 20 and pH was adjusted to 7.4. An 8% albumin stock consisted of HSA dissolved at 8% (w/v) in assay buffer. An 0.02% albumin stock consisted of HSA dissolved at 0.02% (w/v) in assay buffer.
The cells express the human GLP-1 receptor.
The cells were grown at 5% CO2 in DMEM, 10% fetal calf serum, 1% Pen/Strep (Penicillin/Streptomycin) and 1.0 mg/ml of the selection marker G418.
To make a membrane preparation the cells were grown to approximately 80% confluence. The cells were washed twice in phosphate-buffered saline and harvested. The cells were pelleted using a brief centrifugation and the cell pellet was kept on ice. The cell pellet was homogenised with ULTRA-THURRAX™ dispersing instrument for 20-30 seconds in a suitable amount of buffer 1 (e.g., 10 ml). The homogenate was centrifuged for 15 minutes. The pellet was re-suspended (homogenised) in 10 ml buffer 2 and centrifuged. This step was repeated once more. The resulting pellet was re-suspended in buffer 2 and the protein concentration was determined. The membranes were aliquoted and stored at minus 80° C.
For the receptor binding assay in the presence of low HSA (0.005%) 50 μl of the assay buffer was added to each well of an assay plate. Assay continued with step 3.
For the receptor binding assay in the presence of high HSA (2%) 50 μl of the 8% albumin stock was added to each well of an assay plate. Assay continued with step 3.
Cell membrane aliquots were thawed and diluted to their working concentration. Fifty μl were added to each well in the assay plate.
WGA SPA beads were suspended in assay buffer at 20 mg/ml. The suspension was diluted to 10 mg/ml in assay buffer just prior to addition to the assay plate. Fifty μl were added to each well in the assay plate.
The incubation was started by adding 25 μl of 480 pM solution of [^125I]-GLP-1]-(7-36)NH2 to each well of the assay plate. A 25 μl aliquot was reserved for measuring total counts/well.
The assay plate was incubated for 2 h at 30° C.
The assay plate was centrifuged for 10 min.
The assay plate was read in a Packard TopCount NXT instrument.
The data from the TopCount instrument were transferred to GraphPad Prism software. The software averaged the values for the replicates and performed a non-linear regression. IC50 values were calculated by the software and reported in nM.

Row | IC50 [nM] | SMILES
4 | > 1000 | CC[C@H](C)[C@H](NC(=O)[C@H](Cc1ccccc1)NC(=O)[C@H](CCCCNC(=O)COCCOCCNC(=O)COCCOCCNC(=O)CC[C@H](NC(=O)CCCCCCCCCCCCCCCCC(=O)O)C(=O)O)NC(=O)[C@H](CCCNC(=N)N)NC(=O)[C@H](C)NC(=O)[C@H](C)NC(=O)[C@H](CCC(N)=O)NC(=O)[C@H](CCC(=O)O)NC(=O)[C@H](CCC(=O)O)NC(=O)[C@H](CC(C)C)NC(=O)[C@H](Cc1ccc(O)cc1)NC(=O)[C@H](CCCCNC(=O)COCCOCCNC(=O)COCCOCCNC(=O)CC[C@H](NC(=O)CCCCCCCCCCCCCCCCC(=O)O)C(=O)O)NC(=O)[C@H](CO)NC(=O)[C@@H](NC(=O)[C@H](CC(=O)O)NC(=O)[C@H](CO)NC(=O)[C@@H](NC(=O)[C@H](Cc1ccccc1)NC(=O)[C@@H](NC(=O)CNC(=O)[C@H](CCC(=O)O)NC(=O)C(C)(C)NC(=O)[C@@H](N)Cc1c[nH]cn1)[C@@H](C)O)[C@@H](C)O)C(C)C)C(=O)N[C@@H](C)C(=O)N[C@@H](Cc1c[nH]c2ccccc12)C(=O)N[C@@H](CC(C)C)C(=O)N[C@H](C(=O)N[C@@H](CCCNC(=N)N)C(=O)NCC(=O)N[C@@H](CCCNC(=N)N)C(=O)N[C@@H](CCCCNC(=O)COCCOCCNC(=O)COCCOCCNC(=O)CC[C@H](NC(=O)CCCCCCCCCCCCCCCCC(=O)O)C(=O)O)C(=O)O)C(C)C [Example 5] (H-H[Aib]EGTFTSDVSK([AEEA-AEEA-γGlu-C18 diacid])YLEEQAARK([AEEA-AEEA-γGlu-C18 diacid])FIAWLVRGRK([AEEA-AEEA-γGlu-C18 diacid])-OH; N-terminus and C-terminus assumed)
5 | > 1000 | CC[C@H](C)[C@H](NC(=O)[C@H](Cc1ccccc1)NC(=O)[C@H](CCC(=O)O)NC(=O)[C@H](CCCCNC(=O)[C@@H](N)CCCCNC(=O)COCCOCCNC(=O)COCCOCCNC(=O)CC[C@H](NC(=O)CCCCCCCCCCCCCCCCC(=O)O)C(=O)O)NC(=O)[C@H](C)NC(=O)[C@H](C)NC(=O)[C@H](CCC(N)=O)NC(=O)[C@H](CCC(=O)O)NC(=O)[C@H](CCC(=O)O)NC(=O)[C@H](CC(C)C)NC(=O)[C@H](Cc1ccc(O)cc1)NC(=O)[C@H](CO)NC(=O)[C@H](CO)NC(=O)[C@@H](NC(=O)[C@H](CC(=O)O)NC(=O)[C@H](CO)NC(=O)[C@@H](NC(=O)[C@H](Cc1ccccc1)NC(=O)[C@@H](NC(=O)CNC(=O)[C@H](CCC(=O)O)NC(=O)C(C)(C)NC(=O)[C@@H](N)Cc1c[nH]cn1)[C@@H](C)O)[C@@H](C)O)C(C)C)C(=O)N[C@@H](CCCCNC(=O)[C@@H](N)CCCCNC(=O)COCCOCCNC(=O)COCCOCCNC(=O)CC[C@H](NC(=O)CCCCCCCCCCCCCCCCC(=O)O)C(=O)O)C(=O)N[C@@H](Cc1c[nH]c2ccccc12)C(=O)N[C@@H](CC(C)C)C(=O)N[C@H](C(=O)N[C@@H](CCCNC(=N)N)C(=O)NCC(=O)N[C@@H](CCCNC(=N)N)C(=O)N[C@@H](CCCCNC(=O)[C@@H](N)CCCCNC(=O)COCCOCCNC(=O)COCCOCCNC(=O)CC[C@H](NC(=O)CCCCCCCCCCCCCCCCC(=O)O)C(=O)O)C(=O)O)C(C)C [Example 11] (H-H[Aib]EGTFTSDVSSYLEEQAAK([εLys-AEEA-AEEA-γGlu-C18 diacid])EFIK([εLys-AEEA-AEEA-γGlu-C18 diacid])WLVRGRK([εLys-AEEA-AEEA-γGlu-C18 diacid])-OH; N-terminus and C-terminus assumed)
6 | 100 | CC[C@H](C)[C@H](NC(=O)[C@H](Cc1ccccc1)NC(=O)[C@H](CCC(=O)O)NC(=O)[C@H](CCCNC(=N)N)NC(=O)[C@H](C)NC(=O)[C@H](C)NC(=O)[C@H](CCC(N)=O)NC(=O)[C@H](CCCCNC(=O)COCCOCCNC(=O)COCCOCCNC(=O)COCCOCCNC(=O)COCCOCCNC(=O)COCCOCCNC(=O)[C@@H](N)CCCCNC(=O)[C@@H](N)CCCCNC(=O)CCCCCNC(=O)CCCCCCCCCCCCCCCS(=O)(=O)O)NC(=O)[C@H](CCC(=O)O)NC(=O)[C@H](CC(C)C)NC(=O)[C@H](Cc1ccc(O)cc1)NC(=O)[C@H](CCCCNC(=O)COCCOCCNC(=O)COCCOCCNC(=O)COCCOCCNC(=O)COCCOCCNC(=O)COCCOCCNC(=O)[C@@H](N)CCCCNC(=O)[C@@H](N)CCCCNC(=O)CCCCCNC(=O)CCCCCCCCCCCCCCCS(=O)(=O)O)NC(=O)[C@H](CO)NC(=O)[C@@H](NC(=O)[C@H](CC(=O)O)NC(=O)[C@H](CO)NC(=O)[C@@H](NC(=O)[C@H](Cc1ccccc1)NC(=O)[C@@H](NC(=O)CNC(=O)[C@H](CCC(=O)O)NC(=O)C(C)(C)NC(=O)[C@@H](N)Cc1c[nH]cn1)[C@@H](C)O)[C@@H](C)O)C(C)C)C(=O)N[C@@H](CCCCNC(=O)COCCOCCNC(=O)COCCOCCNC(=O)COCCOCCNC(=O)COCCOCCNC(=O)COCCOCCNC(=O)[C@@H](N)CCCCNC(=O)[C@@H](N)CCCCNC(=O)CCCCCNC(=O)CCCCCCCCCCCCCCCS(=O)(=O)O)C(=O)N[C@@H](Cc1c[nH]c2ccccc12)C(=O)N[C@@H](CC(C)C)C(=O)N[C@H](C(=O)N[C@@H](CCCNC(=N)N)C(=O)NCC(=O)N[C@@H](CCCNC(=N)N)C(=O)NCC(=O)O)C(C)C [Example 20]
